Reference: the NIST ThermoML archive (doi:10.1016/j.jct.2005.01.002)

Assay: xn = mol fraction of the nth substance listed
Conditions: 101 kPa, Liquid

CCCCCOCCCCC [dipentyl ether] + CN(C)C=O
mass density [kg/m3]
Conditions	298.15 K	313.15 K	328.15 K	343.15 K	358.15 K
x2 = 0.0416	781.66	771.34	759.02	746.76	734.14
x2 = 0.1163	787.12	776.77	764.39	752.03	739.41
x2 = 0.1609	790.65	780.27	767.84	755.43	742.78
x2 = 0.217	795.39	784.95	772.41	759.94	747.25
x2 = 0.2456	797.91	787.44	774.88	762.38	749.67
x2 = 0.3011	803.14	792.61	779.97	767.39	754.63
x2 = 0.3542	808.53	797.94	785.21	772.57	759.74
x2 = 0.4097	814.65	803.99	791.14	778.42	765.54
x2 = 0.457	820.29	809.57	796.61	783.81	770.89
x2 = 0.5002	825.83	815.04	801.98	789.12	776.12
x2 = 0.5187	828.35	817.52	804.42	791.51	778.49
x2 = 0.5486	832.57	821.67	808.5	795.54	782.47
x2 = 0.6123	842.35	831.31	817.97	804.87	791.69
x2 = 0.6525	849.15	837.99	824.54	811.37	798.06
x2 = 0.7141	860.63	849.31	835.68	822.37	808.9
x2 = 0.7678	872.03	860.55	846.65	833.17	819.65
x2 = 0.8272	886.29	874.58	860.43	846.76	833.11
x2 = 0.8585	894.75	882.91	868.61	854.86	840.93
x2 = 0.9152	911.86	899.77	885.03	871.15	857.02
x2 = 0.9534	924.96	912.63	897.96	883.55	869.17

CCCOCCC [dipropyl ether] + CN(C)C=O
mass density [kg/m3]
Conditions	298.15 K	313.15 K	328.15 K	343.15 K	358.15 K
x2 = 0.0499	749.01	735.06	720.89	706.81	692.16
x2 = 0.1072	756.74	742.84	728.72	714.64	699.96
x2 = 0.1515	763.14	749.17	735.12	720.81	706.1
x2 = 0.2129	772.12	758.15	743.94	729.67	714.89
x2 = 0.2528	778.22	764.23	749.93	735.72	720.91
x2 = 0.3142	787.82	773.92	759.52	745.25	730.4
x2 = 0.3508	793.89	780	765.58	751.24	736.39
x2 = 0.3895	800.55	786.59	772.07	757.74	742.88
x2 = 0.4353	808.57	794.67	780.13	765.72	750.85
x2 = 0.4788	816.49	802.63	788.03	773.58	758.7
x2 = 0.5053	821.46	807.64	793.01	778.54	763.66
x2 = 0.5243	825.12	811.32	796.66	782.18	767.29
x2 = 0.5454	829.23	815.46	800.8	786.3	771.4
x2 = 0.6019	840.66	826.99	812.28	797.75	782.85
x2 = 0.6475	850.32	836.74	821.98	807.43	792.53
x2 = 0.7054	863.22	849.75	834.83	820.5	805.64
x2 = 0.7502	873.74	860.32	845.39	830.97	816.13
x2 = 0.79	883.5	870.11	854.95	840.56	825.74
x2 = 0.8514	899.37	886.42	871.19	856.91	842.07
x2 = 0.9075	914.86	902.16	886.61	872.33	857.58
x2 = 0.9594	933.76	921.32	905.81	891.47	876.94
